assay: Human HepG2 cell viability assay in 384 well format; type: toxicity, cell-based; parameters: dose 125 nL, time 70.5 hour; cytotoxicity at 70.5 h: concentration not given beside the values; details: HepG2 cells, read-out: Inhibition

First: CCn1nc(C)c2c1cnn2CCNS(=O)(=O)c1ccccc1
Second: CCS(=O)(=O)NC[C@]12COC[C@H]1CN(CCc1ccccc1)C2
The cytotoxicity at 70.5 h of the first is lower: -6.47% for the first, -5.39% for the second.

Going from `CC(=O)N1CCC(=O)N(C2CCCC2)Cc2ccccc21` to `COc1ccc(C2=CCN(C(=O)C3CC(=O)N(C4CC4)C3)CC2)cc1` (stereo unspecified), the cytotoxicity at 70.5 h falls from 7.97% to -12.9%.

Going from `CC(C)=CCS(=O)(=O)Cc1ccn(-c2cccc(F)c2)n1` to `CC(Nc1ccc(C#N)cc1F)c1cccc(S(N)(=O)=O)c1` (stereo unspecified), the cytotoxicity at 70.5 h rises from -6.79% to 16.2%.

Compared with `Cn1cnc2c1CCN(Cc1nc(-c3ccco3)no1)C2`, `O=C(O)C1(n2cccn2)CCN(Cc2nc(-c3ccccc3)no2)CC1` is lower in cytotoxicity at 70.5 h: 8.47% for the first, -9.66% for the second.

Going from `N#CC1(NC(=O)c2ccc(-c3nc(C4CC4)n[nH]3)cc2)CCSC1` (stereo unspecified) to `Fc1cccc2ncnc(NCC3(N4CCOCC4)CCSC3)c12` (stereo unspecified), the cytotoxicity at 70.5 h rises from -18.6% to 3.01%.

First: O=C(Nc1ccccc1OC(F)F)C1=NN(c2ccccc2)C(=O)CN1
Second: CN(C(=O)c1ccc[nH]1)C1CC(=O)N(Cc2ccccc2)C1=O (stereo unspecified)
The cytotoxicity at 70.5 h of the first is lower: -8.48% for the first, -4.14% for the second.

First: O=C(c1ccc(Cl)cc1)N1CCC2(C1)C(=O)Nc1ccccc12 (stereo unspecified)
Second: O=C1CN(Cc2ccc(-c3ccccc3C(=O)O)cc2)CCN1
The cytotoxicity at 70.5 h of the first is lower: -7.9% for the first, 37.1% for the second.

First: CN(Cc1ccccc1)CC(O)Cn1cnc2c(Cl)cc(Cl)cc2c1=O (stereo unspecified)
Second: CN(CCCc1ccccc1)C(=O)c1cn2c(n1)CNCC2
The cytotoxicity at 70.5 h of the first is lower: -9.03% for the first, -3.6% for the second.

Compared with `Cc1cc(C)n(CC2CN(Cc3ccc(C(N)=O)cc3)CCO2)n1` (stereo unspecified), `Cc1cnn(CC2CN(Cc3cccc(C(=O)N(C)C)c3)CCO2)c1` (stereo unspecified) is higher in cytotoxicity at 70.5 h: -4.76% for the first, 3.78% for the second.

First: Cc1cc2nc(C(C)C)cc(NCC(c3ccccn3)N(C)C)n2n1 (stereo unspecified)
Second: Cc1ccc(C(CNC(=O)Cc2nc3ncccn3n2)N(C)C)cc1 (stereo unspecified)
The cytotoxicity at 70.5 h of the first is higher: 3.67% for the first, -10.7% for the second.

Going from `CCOC(C)c1nc(Cn2cc(C)cn2)cs1` (stereo unspecified) to `Cc1ccc(-c2nc(CN3CCOC(Cn4cccn4)C3)cs2)o1` (stereo unspecified), the cytotoxicity at 70.5 h falls from 9.54% to -13.3%.

Compared with `COc1cccc(CN(C)Cc2nc3c(cnn3C)c(=O)[nH]2)c1OC`, `COc1cccc(N2CCN(Cc3nccc(OC)c3OC)CC2=O)c1` is higher in cytotoxicity at 70.5 h: -5.01% for the first, -0.0493% for the second.

Compared with `N#Cc1ccnc(N2CCN(Cc3cccc(F)c3)CC2)c1`, `CN1CCN(Cc2cccc(C#N)c2)Cc2cccnc21` is lower in cytotoxicity at 70.5 h: -6.08% for the first, -7.78% for the second.

Compared with `Cc1ccc(C(O)CNC(=O)NCc2nc(C)cs2)cc1` (stereo unspecified), `CC(C)NC(=O)C1(Cc2ccccc2-c2cccs2)CCNC1` (stereo unspecified) is lower in cytotoxicity at 70.5 h: -2.07% for the first, -3.31% for the second.

Compared with `CC(C)n1nc2c(cc1=O)CN(c1ncnc3sccc13)CC2`, `Cn1nc2c(cc1=O)CN(c1ncnc3sccc13)CC2` is higher in cytotoxicity at 70.5 h: -10.1% for the first, 5.63% for the second.

Compared with `COCCN1CCC(CN(CC2CCCO2)C(=O)C2CCOCC2)CC1` (stereo unspecified), `CCn1cnnc1CNC(=O)N1CCC(CN2CCOCC2)CC1` is lower in cytotoxicity at 70.5 h: -5.33% for the first, -14.7% for the second.

First: Cc1noc2nc(C3CCN(Cc4cccnc4)CC3)cc(C(F)F)c12
Second: Cc1cc(C)nc(N2Cc3cnn(Cc4ccc(F)cc4)c3C2)n1
The cytotoxicity at 70.5 h of the first is lower: -3.96% for the first, 13.2% for the second.

Compared with `CC(=O)NCC1CCN(c2ccnc3ccc(Br)cc23)CC1`, `O=S(=O)(NCC1CCN(c2ccccn2)CC1)c1ccccc1F` is higher in cytotoxicity at 70.5 h: -2.63% for the first, 33.3% for the second.

Going from `CCSC(C)c1nc(-c2ccc(C)nn2)no1` (stereo unspecified) to `Cc1nc2ccccc2n(Cc2nnnn2C2CC2)c1=O`, the cytotoxicity at 70.5 h falls from 4.73% to -5.13%.

First: COCCn1cnnc1Cn1ccnc1-c1ccsc1
Second: COCCNc1ncc(-c2cccc(OC)c2)c(-c2nccn2C)n1
The cytotoxicity at 70.5 h of the first is higher: 1.35% for the first, -7.42% for the second.

Going from `Cc1cccc(CNC2CC3(CCN(CCO)CC3)c3ccccc32)n1` (stereo unspecified) to `Cc1ccc(C(=O)N2CCC3(CC2)CC(c2ccccc2)C(=O)N3)o1` (stereo unspecified), the cytotoxicity at 70.5 h falls from 2.24% to -5.53%.

First: Cc1nnc([C@@H]2CC[C@@H]3[C@@H](CCN3Cc3ccccn3)O2)o1
Second: CO[C@H]1CCN(Cc2ccccn2)[C@@H]2CN(Cc3ccco3)C[C@H]12
The cytotoxicity at 70.5 h of the first is higher: 10.5% for the first, -20.1% for the second.

First: Cn1cc(C(=O)N2CCCC2CCc2ccccc2)cn1 (stereo unspecified)
Second: COC(=O)N1CCC(NC(=O)CC(C)CCc2ccccc2)CC1 (stereo unspecified)
The cytotoxicity at 70.5 h of the first is higher: -9.35% for the first, -14% for the second.

Going from `Cc1cc(NC(=O)NCC(C(C)C)N2CCOCC2)n(C)n1` (stereo unspecified) to `Cc1cc(C(=O)N2CCCC(n3cncn3)C2)on1` (stereo unspecified), the cytotoxicity at 70.5 h rises from -6.55% to 26.7%.

Compared with `Cn1c(Cn2ccnc2)nnc1C1CCCN(C2CCCCC2)C1` (stereo unspecified), `CN1CCN(C(=O)N2CC[C@@](O)(c3ccccc3)[C@H]3CCCC[C@@H]32)CC1` is higher in cytotoxicity at 70.5 h: -9.84% for the first, -5.89% for the second.

First: CS(=O)(=O)Nc1ccc2c(c1)NC(=O)CC2c1cnn2cccnc12 (stereo unspecified)
Second: CC(C)n1[nH]c(=O)c2c1NC(=O)CC2c1cccc(O)c1 (stereo unspecified)
The cytotoxicity at 70.5 h of the first is higher: 17.5% for the first, -9.65% for the second.

Going from `O=C(Cc1ccc2c(c1)CCCC2)N[C@@H]1CC[C@@H](n2ccnc2)[C@@H]1O` to `O=C(c1ccc2c(c1)CCC2)N1C[C@@H](CN2CCOCC2)[C@@H](CO)C1`, the cytotoxicity at 70.5 h falls from -3.88% to -6.01%.

Compared with `CC(C)(C)[S+]([O-])CCNC(=O)c1csc(NC2CC2)n1` (stereo unspecified), `CC(NC1(CNC(=O)NC2CC2)CCOCC1)c1ccccc1` (stereo unspecified) is higher in cytotoxicity at 70.5 h: 12.6% for the first, 14.3% for the second.

Going from `CCC(=O)N1CCCC1(C)c1nc(C)no1` (stereo unspecified) to `Cc1cc(C(=O)N2CCc3nc4sc(C)cc4c(=O)n3CC2)on1`, the cytotoxicity at 70.5 h rises from -6.82% to -2.99%.

First: O=C(NCC(=O)N1CCCCC1)c1ccoc1
Second: O=C(CCc1cc2n(n1)CCCN(C(=O)c1cccnc1)C2)NC1CC1
The cytotoxicity at 70.5 h of the first is lower: -7.84% for the first, -2.07% for the second.

Compared with `c1ccc(-n2ncc(CN3CCCC(Cn4cncn4)C3)n2)cc1` (stereo unspecified), `Cc1nccn1C1CCCN(C(=O)c2cccc(-n3cccc3)c2)C1` (stereo unspecified) is higher in cytotoxicity at 70.5 h: 0.701% for the first, 11.6% for the second.

Compared with `CCN1CCN(c2ncnc3c2CCN(C(=O)C2CC2)C3)CC1`, `O=c1cc2c(nn1CN1CCN(c3ccc(F)cc3)CC1)CCC2` is lower in cytotoxicity at 70.5 h: 26.2% for the first, -13.2% for the second.

First: CN(Cc1nccn1C)C(CO)c1cccc(Br)c1 (stereo unspecified)
Second: CC(NCCCc1cnn(C)c1)c1ccc(Cl)s1 (stereo unspecified)
The cytotoxicity at 70.5 h of the first is lower: -28.6% for the first, 2.71% for the second.

Compared with `COc1cc(N2CCC3(CC(=O)N(Cc4csc(C)n4)C3)C2)ncn1` (stereo unspecified), `CCCn1ncc(C2CC(=O)NCc3nc4cc(C)ccn4c32)c1C` (stereo unspecified) is higher in cytotoxicity at 70.5 h: -6.14% for the first, 2.43% for the second.

Compared with `Fc1ccc(CNCc2cc(Br)c3c(c2)OCO3)cc1`, `Cc1ccc(C)c(NS(=O)(=O)c2cc3c(c(C(=O)O)c2)OCCO3)c1` is lower in cytotoxicity at 70.5 h: 7.59% for the first, -8.38% for the second.

First: CCOCC1CN(CC2CC2)Cc2nn(CC3CC3)cc21 (stereo unspecified)
Second: CC1CCN(CC2CCCN(C(=O)Nc3ccccn3)C2)CC1 (stereo unspecified)
The cytotoxicity at 70.5 h of the first is higher: 6.53% for the first, -7.54% for the second.

Compared with `CSc1nc2cc(C)n(CC(=O)Nc3nccs3)c2c(=O)n1CC(C)C`, `CC(C)[C@@H]1CN(CC(=O)NCc2ccco2)C[C@H]1NS(=O)(=O)N(C)C` is higher in cytotoxicity at 70.5 h: -6.26% for the first, -3.9% for the second.

Going from `C=Cc1ccc(C(=O)N2CCCC(Nc3ccc(F)c(F)c3)C2)cc1` (stereo unspecified) to `COc1ccc(N(c2ccccc2)c2ccc(C(=O)O)s2)cc1`, the cytotoxicity at 70.5 h falls from 26% to -0.368%.

Compared with `CCCS(=O)(=O)N1CCC2(CC1)CN(C(=O)N(C)C)c1ccccc12`, `Cc1ccccc1C(=O)N1CCC2(CCC(C(=O)NCC3CC3)O2)CC1` (stereo unspecified) is lower in cytotoxicity at 70.5 h: -10.2% for the first, -18.9% for the second.

First: Cc1nnc2n1CCN(C(=O)c1cc(Cl)c(Br)[nH]1)C2
Second: CN(CC(N)=O)C(=O)c1cnc(-c2ccc(Cl)s2)s1
The cytotoxicity at 70.5 h of the first is higher: -2.93% for the first, -4.25% for the second.

Work on `CCN1CC[C@@]2(C(=O)N3CCOCC3)CCN(C(=O)NC)CC[C@@H]12` yielded a cytotoxicity at 70.5 h of -10.8%.

Source: ChEMBL document CHEMBL3507680, “University of Dundee, Gates Library screen for HepG2 cell viability”
